Source: PubChem BioAssay AID1963986 (Molecular Pharmacology Branch, DTP, NCI, 2024)

Tested on: 171881-019-R-J1-PDC tumor spheroid viability
Assay: Anticancer human tumor 171881-019-R-J1-PDC patient-derived invasive breast carcinoma cell line growth inhibition [PI3K]
Settings: spheroids with HUVEC and MSC; for IC50: curve of first compound; for viability, T/C: stronger effect = lower value
Summary of the method: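 Three cell types, namely tumor cells, endothelial cells and mesenchymal stem cells, formed each spheroid. Combinations with four PI3K inhibitors were screened at clinically achievable concentrations decreasing by half-log, and spheroid viability was recorded.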

[1] = second compound 0.0316 µM, first compound 0.0316 µM
[2] = second compound 0.0316 µM, first compound 0.1 µM
[3] = second compound 0.0316 µM, first compound 0.316 µM
[4] = second compound 0.0316 µM, first compound 1 µM
[5] = second compound 0.0316 µM, first compound 3.16 µM
[6] = second compound 0.0316 µM, first compound 10 µM
[7] = second compound 0.1 µM, first compound 0.0316 µM
[8] = second compound 0.1 µM, first compound 0.1 µM
[9] = second compound 0.1 µM, first compound 0.316 µM
[10] = second compound 0.1 µM, first compound 1 µM
[11] = second compound 0.1 µM, first compound 3.16 µM
[12] = second compound 0.1 µM, first compound 10 µM
[13] = second compound 0.316 µM, first compound 0.0316 µM
[14] = second compound 0.316 µM, first compound 0.1 µM
[15] = second compound 0.316 µM, first compound 0.316 µM
[16] = second compound 0.316 µM, first compound 1 µM
[17] = second compound 0.316 µM, first compound 3.16 µM
[18] = second compound 0.316 µM, first compound 10 µM
[19] = second compound 1 µM, first compound 0.0316 µM
[20] = second compound 1 µM, first compound 0.1 µM
[21] = second compound 1 µM, first compound 0.316 µM
[22] = second compound 1 µM, first compound 1 µM
[23] = second compound 1 µM, first compound 3.16 µM
[24] = second compound 1 µM, first compound 10 µM
[25] = second compound 3.16 µM, first compound 0.0316 µM
[26] = second compound 3.16 µM, first compound 0.1 µM
[27] = second compound 3.16 µM, first compound 0.316 µM
[28] = second compound 3.16 µM, first compound 1 µM
[29] = second compound 3.16 µM, first compound 3.16 µM
[30] = second compound 3.16 µM, first compound 10 µM
[31] = second compound 10 µM, first compound 0.0316 µM
[32] = second compound 10 µM, first compound 0.1 µM
[33] = second compound 10 µM, first compound 0.316 µM
[34] = second compound 10 µM, first compound 1 µM
[35] = second compound 10 µM, first compound 3.16 µM
[36] = second compound 10 µM, first compound 10 µM
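Further: spheroids exposed to compound for 7 days before viability read.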
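Wherever viability, T/C is given: 100% = DMSO vehicle-treated spheroids.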

## CC(C)NCC(C(=O)N1CCN(c2ncnc3c2C(C)CC3O)CC1)c1ccc(Cl)cc1 (stereo not drawn) + Cc1nc(NC(=O)N2CCCC2C(N)=O)sc1-c1ccnc(C(C)(C)C(F)(F)F)c1
Second compound 0.0316 µM
  IC50: 0.276 µM
Second compound 0.1 µM
  IC50: 0.262 µM
Second compound 0.316 µM
  IC50: 0.0728 µM
Second compound 1 µM
  IC50: < 0.0316 µM
Second compound 3.16 µM
  IC50: < 0.0316 µM
Second compound 10 µM
  IC50: < 0.0316 µM
[1]
  viability, T/C: 97.9%
[2]
  viability, T/C: 68.3%
[3]
  viability, T/C: 50.1%
[4]
  viability, T/C: 28.4%
[5]
  viability, T/C: 16.7%
[6]
  viability, T/C: 9.99%
[7]
  viability, T/C: 81.6%
[8]
  viability, T/C: 64.3%
[9]
  viability, T/C: 49.5%
[10]
  viability, T/C: 25.9%
[11]
  viability, T/C: 13.6%
[12]
  viability, T/C: 8.89%
[13]
  viability, T/C: 55.5%
[14]
  viability, T/C: 46.7%
[15]
  viability, T/C: 38%
[16]
  viability, T/C: 23.2%
[17]
  viability, T/C: 12.6%
[18]
  viability, T/C: 8.17%
[19]
  viability, T/C: 32%
[20]
  viability, T/C: 31%
[21]
  viability, T/C: 28.6%
[22]
  viability, T/C: 16.1%
[23]
  viability, T/C: 8.99%
[24]
  viability, T/C: 7.16%
[25]
  viability, T/C: 14.6%
[26]
  viability, T/C: 14.8%
[27]
  viability, T/C: 12.4%
[28]
  viability, T/C: 8.95%
[29]
  viability, T/C: 6.94%
[30]
  viability, T/C: 4.98%
[31]
  viability, T/C: 3.06%
[32]
  viability, T/C: 3.52%
[33]
  viability, T/C: 3.3%
[34]
  viability, T/C: 3.85%
[35]
  viability, T/C: 2.77%
[36]
  viability, T/C: 1.56%

## CC1(C)CCC(CN2CCN(c3ccc(C(=O)NS(=O)(=O)c4ccc(NCC5CCOCC5)c([N+](=O)[O-])c4)c(Oc4cnc5[nH]ccc5c4)c3)CC2)=C(c2ccc(Cl)cc2)C1 + Cc1nc(NC(=O)N2CCCC2C(N)=O)sc1-c1ccnc(C(C)(C)C(F)(F)F)c1
Second compound 0.0316 µM
  IC50: 3.84 µM
Second compound 0.1 µM
  IC50: 3.34 µM
Second compound 0.316 µM
  IC50: 1.53 µM
Second compound 1 µM
  IC50: < 0.0316 µM
Second compound 3.16 µM
  IC50: < 0.0316 µM
Second compound 10 µM
  IC50: < 0.0316 µM
[1]
  viability, T/C: 102%
[2]
  viability, T/C: 86.9%
[3]
  viability, T/C: 90.8%
[4]
  viability, T/C: 81.5%
[5]
  viability, T/C: 56.6%
[6]
  viability, T/C: 13.9%
[7]
  viability, T/C: 94.3%
[8]
  viability, T/C: 70.6%
[9]
  viability, T/C: 75.5%
[10]
  viability, T/C: 73.7%
[11]
  viability, T/C: 52%
[12]
  viability, T/C: 13.1%
[13]
  viability, T/C: 54.8%
[14]
  viability, T/C: 52.6%
[15]
  viability, T/C: 56.1%
[16]
  viability, T/C: 57.6%
[17]
  viability, T/C: 41%
[18]
  viability, T/C: 10.3%
[19]
  viability, T/C: 33.8%
[20]
  viability, T/C: 34.3%
[21]
  viability, T/C: 33.6%
[22]
  viability, T/C: 33.4%
[23]
  viability, T/C: 31.6%
[24]
  viability, T/C: 8.49%
[25]
  viability, T/C: 13.2%
[26]
  viability, T/C: 14.2%
[27]
  viability, T/C: 12.7%
[28]
  viability, T/C: 14.6%
[29]
  viability, T/C: 15.9%
[30]
  viability, T/C: 5.35%
[31]
  viability, T/C: 3.36%
[32]
  viability, T/C: 3.47%
[33]
  viability, T/C: 3.28%
[34]
  viability, T/C: 3.12%
[35]
  viability, T/C: 3.52%
[36]
  viability, T/C: 2.22%

## C[C@@H](NC(=O)c1ncnc(N)c1Cl)c1ncc(C(=O)Nc2cc(C(F)(F)F)c(Cl)cn2)s1 + Cc1nc(NC(=O)N2CCCC2C(N)=O)sc1-c1ccnc(C(C)(C)C(F)(F)F)c1
Second compound 0.0316 µM
  IC50: 6.1 µM
Second compound 0.1 µM
  IC50: 3 µM
Second compound 0.316 µM
  IC50: 0.555 µM
Second compound 1 µM
  IC50: < 0.0316 µM
Second compound 3.16 µM
  IC50: < 0.0316 µM
Second compound 10 µM
  IC50: < 0.0316 µM
[1]
  viability, T/C: 92.6%
[2]
  viability, T/C: 83.5%
[3]
  viability, T/C: 84.8%
[4]
  viability, T/C: 79.5%
[5]
  viability, T/C: 65%
[6]
  viability, T/C: 38.7%
[7]
  viability, T/C: 86.2%
[8]
  viability, T/C: 82.2%
[9]
  viability, T/C: 77.9%
[10]
  viability, T/C: 65.9%
[11]
  viability, T/C: 49.2%
[12]
  viability, T/C: 30.7%
[13]
  viability, T/C: 55.3%
[14]
  viability, T/C: 56.6%
[15]
  viability, T/C: 51.8%
[16]
  viability, T/C: 47.3%
[17]
  viability, T/C: 31.9%
[18]
  viability, T/C: 17.5%
[19]
  viability, T/C: 32.7%
[20]
  viability, T/C: 33.3%
[21]
  viability, T/C: 31.1%
[22]
  viability, T/C: 24.5%
[23]
  viability, T/C: 17.3%
[24]
  viability, T/C: 7.53%
[25]
  viability, T/C: 16.2%
[26]
  viability, T/C: 15.2%
[27]
  viability, T/C: 12.5%
[28]
  viability, T/C: 10.3%
[29]
  viability, T/C: 5.29%
[30]
  viability, T/C: 2.14%
[31]
  viability, T/C: 4.03%
[32]
  viability, T/C: 3.76%
[33]
  viability, T/C: 3.28%
[34]
  viability, T/C: 2.32%
[35]
  viability, T/C: 1.29%
[36]
  viability, T/C: 0.49%

## Cn1ncnc1[C@H]1c2n[nH]c(=O)c3cc(F)cc(c23)N[C@@H]1c1ccc(F)cc1 + Cc1nc(NC(=O)N2CCCC2C(N)=O)sc1-c1ccnc(C(C)(C)C(F)(F)F)c1
Second compound 0.0316 µM
  IC50: > 0.1 µM
Second compound 0.1 µM
  IC50: > 0.1 µM
Second compound 0.316 µM
  IC50: > 0.1 µM
Second compound 1 µM
  IC50: < 0.000316 µM
Second compound 3.16 µM
  IC50: < 0.000316 µM
Second compound 10 µM
  IC50: < 0.000316 µM
Second compound 0.0316 µM, first compound 0.000316 µM
  viability, T/C: 96.5%
Second compound 0.0316 µM, first compound 0.001 µM
  viability, T/C: 91%
Second compound 0.0316 µM, first compound 0.00316 µM
  viability, T/C: 84.8%
Second compound 0.0316 µM, first compound 0.01 µM
  viability, T/C: 88.8%
[1]
  viability, T/C: 86.3%
[2]
  viability, T/C: 79.8%
Second compound 0.1 µM, first compound 0.000316 µM
  viability, T/C: 86.7%
Second compound 0.1 µM, first compound 0.001 µM
  viability, T/C: 65.1%
Second compound 0.1 µM, first compound 0.00316 µM
  viability, T/C: 76.4%
Second compound 0.1 µM, first compound 0.01 µM
  viability, T/C: 73.1%
[7]
  viability, T/C: 74.1%
[8]
  viability, T/C: 66.6%
Second compound 0.316 µM, first compound 0.000316 µM
  viability, T/C: 50.2%
Second compound 0.316 µM, first compound 0.001 µM
  viability, T/C: 56.3%
Second compound 0.316 µM, first compound 0.00316 µM
  viability, T/C: 51.6%
Second compound 0.316 µM, first compound 0.01 µM
  viability, T/C: 56.4%
[13]
  viability, T/C: 55%
[14]
  viability, T/C: 46.6%
Second compound 1 µM, first compound 0.000316 µM
  viability, T/C: 32.8%
Second compound 1 µM, first compound 0.001 µM
  viability, T/C: 32.8%
Second compound 1 µM, first compound 0.00316 µM
  viability, T/C: 29.4%
Second compound 1 µM, first compound 0.01 µM
  viability, T/C: 31.6%
[19]
  viability, T/C: 29.6%
[20]
  viability, T/C: 27.4%
Second compound 3.16 µM, first compound 0.000316 µM
  viability, T/C: 13.4%
Second compound 3.16 µM, first compound 0.001 µM
  viability, T/C: 14%
Second compound 3.16 µM, first compound 0.00316 µM
  viability, T/C: 12.8%
Second compound 3.16 µM, first compound 0.01 µM
  viability, T/C: 13.4%
[25]
  viability, T/C: 13.3%
[26]
  viability, T/C: 12.1%
Second compound 10 µM, first compound 0.000316 µM
  viability, T/C: 3.72%
Second compound 10 µM, first compound 0.001 µM
  viability, T/C: 3.81%
Second compound 10 µM, first compound 0.00316 µM
  viability, T/C: 4.27%
Second compound 10 µM, first compound 0.01 µM
  viability, T/C: 3.81%
[31]
  viability, T/C: 3.35%
[32]
  viability, T/C: 2.96%
